Laboratory results as given in patent US20130315843A1, “COMPOSITION FOR REDUCTION OF TRPA1 AND TRPV1 SENSATIONS” (priority 2012, published 2013).

Target: T1, human TRPA1 (Homo sapiens, UniProt O75762)
Experiment: FLIPR Ca2+ assay, reduction of hydrogen peroxide activation of TRPA1
Assay type: cell-based
Parameters: expressed in transfected cells
Details: not given
Description: After centrifugation, a pellet of cells was formed in the bottom of the tube separating them from the supernatant solution.
(§1) The pelleted cells were re-suspended in 10 ml assay buffer and 90 μl aliquots (˜50,000 cells) per well delivered to a 96-well assay plate containing 10 μl of test compounds ([…]) or buffer control and incubated at room temperature for 30 minutes.

T1 sequence (O75762 whole entry): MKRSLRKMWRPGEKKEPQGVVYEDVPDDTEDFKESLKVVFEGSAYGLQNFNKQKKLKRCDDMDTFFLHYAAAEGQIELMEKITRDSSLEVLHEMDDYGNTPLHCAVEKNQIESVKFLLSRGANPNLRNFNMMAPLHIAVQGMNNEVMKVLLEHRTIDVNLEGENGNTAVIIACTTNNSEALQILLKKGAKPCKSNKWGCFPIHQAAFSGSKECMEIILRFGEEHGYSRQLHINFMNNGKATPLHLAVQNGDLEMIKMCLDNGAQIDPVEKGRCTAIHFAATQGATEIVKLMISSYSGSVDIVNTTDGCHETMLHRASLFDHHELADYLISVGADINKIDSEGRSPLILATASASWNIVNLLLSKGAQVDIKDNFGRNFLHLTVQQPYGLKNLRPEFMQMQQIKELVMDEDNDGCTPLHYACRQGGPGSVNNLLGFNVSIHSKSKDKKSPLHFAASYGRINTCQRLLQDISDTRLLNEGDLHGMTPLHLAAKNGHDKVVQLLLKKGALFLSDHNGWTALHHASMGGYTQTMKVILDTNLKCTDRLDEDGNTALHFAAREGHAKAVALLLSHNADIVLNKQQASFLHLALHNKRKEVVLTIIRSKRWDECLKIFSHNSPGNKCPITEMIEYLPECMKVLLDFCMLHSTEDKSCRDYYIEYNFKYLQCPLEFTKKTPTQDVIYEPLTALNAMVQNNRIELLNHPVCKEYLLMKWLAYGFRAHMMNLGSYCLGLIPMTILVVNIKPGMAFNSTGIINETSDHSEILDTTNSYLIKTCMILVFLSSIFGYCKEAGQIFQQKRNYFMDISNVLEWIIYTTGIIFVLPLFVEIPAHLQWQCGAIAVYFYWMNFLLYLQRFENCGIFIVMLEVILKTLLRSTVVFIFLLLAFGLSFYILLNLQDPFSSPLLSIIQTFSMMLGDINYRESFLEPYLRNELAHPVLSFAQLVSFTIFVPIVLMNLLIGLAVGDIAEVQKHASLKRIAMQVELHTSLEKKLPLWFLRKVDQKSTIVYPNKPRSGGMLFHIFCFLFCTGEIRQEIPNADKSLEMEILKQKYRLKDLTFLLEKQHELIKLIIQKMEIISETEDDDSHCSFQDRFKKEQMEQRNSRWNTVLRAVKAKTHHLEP

| SMILES | reduction of hydrogen peroxide activation of TRPA1, in words | Average Ca++ Counts | Block of hydrogen peroxide activation of TRPA1 |
| --- | --- | --- | --- |
| Cn1cccc1C=O [1-Methyl-2-pyrole carboxaldehyde] | reduced hydrogen peroxide activation of TRPA1 | – | – |
| CCCCCCCCCC(C)=O [2-undecanone] | – | 4581.0 Counts | Block menthol, H2O2, and AITC on TRPA1 |
| CC(=O)OC1=C(C)OC(C)C1=O (centres unmarked) [Strawberry Furanone Acetate, 4-Acetoxy-2,5-dimethyl-3(2H)-furanone] | reduced hydrogen peroxide activation of TRPA1 | – | – |
| CCCCOC(=O)c1ccc(O)cc1 [butyl 4-hydroxybenzoate] | – | 411.0 Counts | Block menthol, H2O2, and AITC on TRPA1 |
| c1ccc(SSc2ccccc2)cc1 [diphenyl disulfide] | – | 1112.0 Counts | Block menthol, H2O2, and AITC on TRPA1 |

Same assay, conditions: 100 μM antagonist vs 500 μM hydrogen peroxide

| SMILES | Block of hydrogen peroxide activation of TRPA1 |
| --- | --- |
| CC1(O)CSC(C)(O)CS1 (centres unmarked) [2,5-dimethyl-1,4-dithiane-2,5-diol] | Block menthol, H2O2, and AITC on TRPA1 |
| O=C(CCl)c1ccccc1 [2-chloroacetophenone] | Block menthol, H2O2, and AITC on TRPA1 |
| CC1SCCS1 [2-methyl-1,3-dithiolane] | Block menthol, H2O2, and AITC on TRPA1 |
| CC(CC=O)CCCC(C)(C)O (centres unmarked) [Hydroxycitronellal] | BLOCK ONLY H2O2/TRPA1 |
| [Cu+].[I-] [copper(i) iodide] | Block menthol, H2O2, and AITC on TRPA1 |
| O=CCc1ccccc1 [phenylacetaldehyde] | Block menthol, H2O2, and AITC on TRPA1 |

Same assay, conditions: 400 μM antagonist vs 500 μM hydrogen peroxide

| SMILES | Block of hydrogen peroxide activation of TRPA1 |
| --- | --- |
| Cn1cccc1C=O [1-Methyl-2-pyrole carboxaldehyde] | BLOCK ONLY H2O2/TRPA1 |
| CC(=O)OC1=C(C)OC(C)C1=O (centres unmarked) [Strawberry Furanone Acetate, 4-Acetoxy-2,5-dimethyl-3(2H)-furanone] | BLOCK ONLY H2O2/TRPA1 |

Same assay, conditions: antagonist 400 μM against 200 μM hydrogen peroxide

| SMILES | % Reduction of Hydrogen Peroxide TRPA1 Activation |
| --- | --- |
| Cn1cccc1C=O [1-Methyl-2-pyrole carboxaldehyde] | 42% |

Same assay, conditions: antagonist 400 μM against 200 μM hydrogen peroxide; read-out: % Reduction of Hydrogen Peroxide TRPA1 Activation

| SMILES | inhibition at 400 µM |
| --- | --- |
| CC(=O)OC1=C(C)OC(C)C1=O (centres unmarked) [Strawberry Furanone Acetate, 4-Acetoxy-2,5-dimethyl-3(2H)-furanone] | 63% |

Same assay, conditions: compound 100 μM against 200 μM hydrogen peroxide; Sets 1-4

| SMILES | Average Ca++ Counts | % Reduction of Hydrogen Peroxide TRPA1 Activation |
| --- | --- | --- |
| CC1(O)CSC(C)(O)CS1 (centres unmarked) [2,5-dimethyl-1,4-dithiane-2,5-diol] | 2420.0 Counts | – |
| O=C(CCl)c1ccccc1 [2-chloroacetophenone] | 1199.5 Counts | – |
| CC1SCCS1 [2-methyl-1,3-dithiolane] | 2402.0 Counts | – |
| CC(CC=O)CCCC(C)(C)O (centres unmarked) [Hydroxycitronellal] | 6313.0 Counts | – |
| [Cu+].[I-] [copper(i) iodide] | – | 90.4% |
| O=CCc1ccccc1 [phenylacetaldehyde] | 2578.5 Counts | – |

Same assay, conditions: compound 100 μM against 200 μM hydrogen peroxide; Sets 1-4; read-out: % Reduction of Hydrogen Peroxide TRPA1 Activation

| SMILES | inhibition at 100 µM |
| --- | --- |
| CC1(O)CSC(C)(O)CS1 (centres unmarked) [2,5-dimethyl-1,4-dithiane-2,5-diol] | 77.2% |
| CC1SCCS1 [2-methyl-1,3-dithiolane] | 72.5% |
| CC(CC=O)CCCC(C)(C)O (centres unmarked) [Hydroxycitronellal] | 40.4% |
| O=CCc1ccccc1 [phenylacetaldehyde] | 75.7% |

Same assay, conditions: read-out: % Reduction of Hydrogen Peroxide TRPA1 Activation

| SMILES | inhibition at 100 µM |
| --- | --- |
| O=C(CCl)c1ccccc1 [2-chloroacetophenone] | 88.7% |
| CCCCCCCCCC(C)=O [2-undecanone] | 56.8% |
| CCCCOC(=O)c1ccc(O)cc1 [butyl 4-hydroxybenzoate] | 96.1% |
| c1ccc(SSc2ccccc2)cc1 [diphenyl disulfide] | 81.1% |

Target: T2, human TRPV1 (Homo sapiens, UniProt Q8NER1)
Experiment: FLIPR Ca2+ assay, reduction of hydrogen peroxide activation of TRPV1
Assay type: cell-based
Parameters: expressed in transfected cells
Details: not given
Description: (§2) Cells were detached with addition of 10 ml of PBS (phosphate buffered saline) by hand shaking gently. Cells were transferred to a 50 ml tube and centrifuged at 850 rpm for 3 minutes to remove PBS.
The pelleted cells were re-suspended in 10 ml assay buffer and 90 μl aliquots (˜50,000 cells) per well delivered to a 96-well assay plate containing 10 μl of test compounds (1 mM in assay buffer, […]) or buffer control and incubated at room temperature for 30 minutes.

T2 sequence (Q8NER1 whole entry): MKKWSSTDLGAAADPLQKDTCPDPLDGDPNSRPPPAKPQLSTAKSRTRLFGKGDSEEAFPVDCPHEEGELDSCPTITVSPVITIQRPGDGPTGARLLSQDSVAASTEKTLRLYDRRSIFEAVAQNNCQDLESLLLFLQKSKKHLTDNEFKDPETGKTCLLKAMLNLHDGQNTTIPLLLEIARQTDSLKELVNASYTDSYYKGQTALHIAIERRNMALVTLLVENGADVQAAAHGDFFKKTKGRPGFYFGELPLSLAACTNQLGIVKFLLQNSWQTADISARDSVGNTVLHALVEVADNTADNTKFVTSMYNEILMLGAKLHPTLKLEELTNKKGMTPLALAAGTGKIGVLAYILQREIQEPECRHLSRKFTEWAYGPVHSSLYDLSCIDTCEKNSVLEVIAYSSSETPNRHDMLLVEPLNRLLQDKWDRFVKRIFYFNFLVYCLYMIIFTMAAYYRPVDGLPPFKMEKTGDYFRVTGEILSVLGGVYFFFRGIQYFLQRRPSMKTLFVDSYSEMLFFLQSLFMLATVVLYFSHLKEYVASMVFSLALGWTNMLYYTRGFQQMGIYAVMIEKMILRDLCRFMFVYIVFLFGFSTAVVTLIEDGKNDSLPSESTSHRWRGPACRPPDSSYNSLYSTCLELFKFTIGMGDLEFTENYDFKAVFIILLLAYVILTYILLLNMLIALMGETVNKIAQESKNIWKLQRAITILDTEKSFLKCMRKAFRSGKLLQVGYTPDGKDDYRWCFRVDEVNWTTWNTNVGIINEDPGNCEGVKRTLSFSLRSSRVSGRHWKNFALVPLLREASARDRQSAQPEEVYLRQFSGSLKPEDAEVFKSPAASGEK

| SMILES | reduction of hydrogen peroxide activation of TRPV1, in words |
| --- | --- |
| Cn1cccc1C=O [1-Methyl-2-pyrole carboxaldehyde] | hydrogen peroxide reduction of TRPV1 |
| CC(=O)OC1=C(C)OC(C)C1=O (centres unmarked) [Strawberry Furanone Acetate, 4-Acetoxy-2,5-dimethyl-3(2H)-furanone] | hydrogen peroxide reduction of TRPV1 |

Same assay, conditions: Dose 4000

| SMILES | % inhibition of TRPV1 activation by 500 uM H2O2 |
| --- | --- |
| Cn1cccc1C=O [1-Methyl-2-pyrole carboxaldehyde] | 79% |

Same assay, conditions: antagonist 100 μM against 500 μM hydrogen peroxide

| SMILES | inhibition at 100 µM |
| --- | --- |
| CC(CC=O)CCCC(C)(C)O (centres unmarked) [Hydroxycitronellal] | 62% |
| CC(=O)OC1=C(C)OC(C)C1=O (centres unmarked) [Strawberry Furanone Acetate, 4-Acetoxy-2,5-dimethyl-3(2H)-furanone] | 60% |

Same assay, conditions: antagonist 400 μM against 500 μM hydrogen peroxide

| SMILES | % Reduction of Hydrogen Peroxide TRPV1 Activation |
| --- | --- |
| Cn1cccc1C=O [1-Methyl-2-pyrole carboxaldehyde] | 79% |

Same assay, conditions: with compound, Dose 1000, 500 uM H2O2

| SMILES | Ca++ counts |
| --- | --- |
| CC(CC=O)CCCC(C)(C)O (centres unmarked) [Hydroxycitronellal] | 627 |
| CC(=O)OC1=C(C)OC(C)C1=O (centres unmarked) [Strawberry Furanone Acetate, 4-Acetoxy-2,5-dimethyl-3(2H)-furanone] | 451 |

Same assay, conditions: with compound, Dose 4000, 500 uM H2O2

| SMILES | Ca++ counts |
| --- | --- |
| Cn1cccc1C=O [1-Methyl-2-pyrole carboxaldehyde] | 380 |

Target: T2, human TRPV1
Experiment: FLIPR Ca2+ assay, reduction of capsaicin activation of TRPV1
Assay type: cell-based
Parameters: expressed in transfected cells
Details: Dose 4000
Description: as §2, §1

| SMILES | % inhibition of TRPV1 activation by 350 nM Capsaicin |
| --- | --- |
| Cn1cccc1C=O [1-Methyl-2-pyrole carboxaldehyde] | 3% |

Same assay, conditions: with compound, Dose 1000, 350 nM Capsaicin

| SMILES | Ca++ counts |
| --- | --- |
| CC(CC=O)CCCC(C)(C)O (centres unmarked) [Hydroxycitronellal] | 14728 |
| CC(=O)OC1=C(C)OC(C)C1=O (centres unmarked) [Strawberry Furanone Acetate, 4-Acetoxy-2,5-dimethyl-3(2H)-furanone] | 14578 |

Same assay, conditions: with compound, Dose 4000, 350 nM Capsaicin

| SMILES | Ca++ counts |
| --- | --- |
| Cn1cccc1C=O [1-Methyl-2-pyrole carboxaldehyde] | 11516 |

Target: T1, human TRPA1
Experiment: FLIPR Ca2+ assay, block of AITC activation of TRPA1
Assay type: cell-based
Parameters: expressed in transfected cells
Details: 100 μM antagonist
Description: Intracellular Ca^++ levels were measured using cell based assays as described for EXAMPLES 1, 2, and 3.

| SMILES | Block of AITC activation of TRPA1 |
| --- | --- |
| CC1(O)CSC(C)(O)CS1 (centres unmarked) [2,5-dimethyl-1,4-dithiane-2,5-diol] | Block menthol, H2O2, and AITC on TRPA1 |
| O=C(CCl)c1ccccc1 [2-chloroacetophenone] | Block menthol, H2O2, and AITC on TRPA1 |
| CC1SCCS1 [2-methyl-1,3-dithiolane] | Block menthol, H2O2, and AITC on TRPA1 |
| CCCCCCCCCC(C)=O [2-undecanone] | Block menthol, H2O2, and AITC on TRPA1 |
| CCCCOC(=O)c1ccc(O)cc1 [butyl 4-hydroxybenzoate] | Block menthol, H2O2, and AITC on TRPA1 |
| [Cu+].[I-] [copper(i) iodide] | Block menthol, H2O2, and AITC on TRPA1 |
| c1ccc(SSc2ccccc2)cc1 [diphenyl disulfide] | Block menthol, H2O2, and AITC on TRPA1 |
| O=CCc1ccccc1 [phenylacetaldehyde] | Block menthol, H2O2, and AITC on TRPA1 |

Target: T1, human TRPA1
Experiment: FLIPR Ca2+ assay, reduction of L-Menthol activation of TRPA1
Details: 100 μM antagonist vs 1 mM L-Menthol

| SMILES | Block of L-Menthol activation of TRPA1 |
| --- | --- |
| CC1(O)CSC(C)(O)CS1 (centres unmarked) [2,5-dimethyl-1,4-dithiane-2,5-diol] | Block menthol, H2O2, and AITC on TRPA1 |
| O=C(CCl)c1ccccc1 [2-chloroacetophenone] | Block menthol, H2O2, and AITC on TRPA1 |
| CC1SCCS1 [2-methyl-1,3-dithiolane] | Block menthol, H2O2, and AITC on TRPA1 |
| CCCCCCCCCC(C)=O [2-undecanone] | Block menthol, H2O2, and AITC on TRPA1 |
| CCCCOC(=O)c1ccc(O)cc1 [butyl 4-hydroxybenzoate] | Block menthol, H2O2, and AITC on TRPA1 |
| [Cu+].[I-] [copper(i) iodide] | Block menthol, H2O2, and AITC on TRPA1 |
| c1ccc(SSc2ccccc2)cc1 [diphenyl disulfide] | Block menthol, H2O2, and AITC on TRPA1 |
| O=CCc1ccccc1 [phenylacetaldehyde] | Block menthol, H2O2, and AITC on TRPA1 |

Target: T2, human TRPV1
Experiment: FLIPR Ca2+ assay, reduction of L-Menthol activation of TRPV1
Details: antagonist 100 μM against 1 mM L-Menthol

| SMILES | Average Ca2+ Counts | % Reduction of L-Menthol TRPV1 Activation |
| --- | --- | --- |
| CC1(O)CSC(C)(O)CS1 (centres unmarked) [2,5-dimethyl-1,4-dithiane-2,5-diol] | 713.7 Counts | – |
| O=C(CCl)c1ccccc1 [2-chloroacetophenone] | 1313.0 Counts | – |
| CC1SCCS1 [2-methyl-1,3-dithiolane] | 2650.5 Counts | – |
| CCCCCCCCCC(C)=O [2-undecanone] | 1282.3 Counts | – |
| CCCCOC(=O)c1ccc(O)cc1 [butyl 4-hydroxybenzoate] | 319.0 Counts | – |
| [Cu+].[I-] [copper(i) iodide] | 651.5 Counts | 89.8% |
| c1ccc(SSc2ccccc2)cc1 [diphenyl disulfide] | 1630.5 Counts | – |
| O=CCc1ccccc1 [phenylacetaldehyde] | 919.3 Counts | – |

Same assay, conditions: read-out: % Reduction of L-Menthol TRPV1 Activation

| SMILES | inhibition at 100 µM |
| --- | --- |
| CC1(O)CSC(C)(O)CS1 (centres unmarked) [2,5-dimethyl-1,4-dithiane-2,5-diol] | 58.9% |
| O=C(CCl)c1ccccc1 [2-chloroacetophenone] | 31.2% |
| CC1SCCS1 [2-methyl-1,3-dithiolane] | 34.3% |
| CCCCCCCCCC(C)=O [2-undecanone] | 32.6% |
| CCCCOC(=O)c1ccc(O)cc1 [butyl 4-hydroxybenzoate] | 77.2% |
| c1ccc(SSc2ccccc2)cc1 [diphenyl disulfide] | 64.9% |
| O=CCc1ccccc1 [phenylacetaldehyde] | 49.4% |
